Results published in patent US11173151B2, “Substituted triazole derivatives and uses thereof” (BAYER AKTIENGESELLSCHAFT, priority 2017, dated 2021).

Key:
human V2 receptor = molecular target: T1, human V2 receptor (Homo sapiens, UniProt P30518); assay: Cellular in vitro assay for determining vasopressin receptor activity, V2 receptor cell line (CHO, CRE-luciferase); type: cell-based; settings: CHO cell line transfected with human V2 receptor; [Arg8]-vasopressin at EC50 concentration, 3 hours; read-out: IC50 hV2
T1 construct: expressed in transfected cells; host or cells: CHO K1 (ATCC) expressing firefly luciferase under a CRE-responsive promoter
T1 sequence (P30518 whole entry): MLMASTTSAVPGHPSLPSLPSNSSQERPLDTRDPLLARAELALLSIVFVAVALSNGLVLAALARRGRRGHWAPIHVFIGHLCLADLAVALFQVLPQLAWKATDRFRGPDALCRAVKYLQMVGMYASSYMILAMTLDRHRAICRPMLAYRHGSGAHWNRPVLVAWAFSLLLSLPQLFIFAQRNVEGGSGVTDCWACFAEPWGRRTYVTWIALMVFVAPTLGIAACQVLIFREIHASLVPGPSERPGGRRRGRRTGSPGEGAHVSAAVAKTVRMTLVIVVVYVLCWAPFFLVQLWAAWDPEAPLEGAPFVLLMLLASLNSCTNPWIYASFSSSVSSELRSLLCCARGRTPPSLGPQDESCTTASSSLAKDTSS

human V1a receptor = molecular target: T2, human V1a receptor (Homo sapiens, UniProt P37288); assay: Cellular in vitro assay for determining vasopressin receptor activity, V1a receptor cell line (CHO, aequorin luminescence); type: cell-based; settings: for IC50: CHO cell line transfected with human V1a receptor, [Arg]-vasopressin at EC50 concentration, read-out: IC50 hV1a; for ratio IC50 hV2/hV1a: selectivity ratio IC50 hV2 / IC50 hV1a
T2 construct: expressed in transfected cells; host or cells: CHO K1 (ATCC), also stably transfected with a modified aequorin
T2 sequence (P37288 whole entry): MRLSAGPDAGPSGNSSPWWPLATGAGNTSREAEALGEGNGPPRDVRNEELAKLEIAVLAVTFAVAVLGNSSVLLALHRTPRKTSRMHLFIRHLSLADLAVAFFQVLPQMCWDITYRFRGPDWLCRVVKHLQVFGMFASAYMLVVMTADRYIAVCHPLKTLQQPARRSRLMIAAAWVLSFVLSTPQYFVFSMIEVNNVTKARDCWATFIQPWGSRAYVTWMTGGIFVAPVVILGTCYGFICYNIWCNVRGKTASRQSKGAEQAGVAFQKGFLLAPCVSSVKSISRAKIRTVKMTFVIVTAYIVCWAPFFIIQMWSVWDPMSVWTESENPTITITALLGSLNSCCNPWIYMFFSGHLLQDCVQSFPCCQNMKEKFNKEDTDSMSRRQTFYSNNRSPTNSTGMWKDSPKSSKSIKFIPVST
How it was run: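 Antagonism is measured in stable CHO K1 transfectants coexpressing the Gαq-coupled receptor and a calcium-sensitive aequorin photoprotein. Agonist challenge uses [Arg]-vasopressin at EC50 after a 10-minute compound exposure; IC50 values come from the luminescence signal.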

Row | SMILES | IC50 (human V2 receptor) [nM] | IC50 (human V1a receptor) [nM] | ratio IC50 hV2/hV1a (human V1a receptor)
1 | COC1CCN(C(=O)c2ccccc2-n2cnc(Cn3nc(-c4ccc(Cl)cc4)n(C[C@H](O)C(F)(F)F)c3=O)n2)CC1 [Example 271, 5-(4-Chlorophenyl)-2-[(1-{2-[(4-methoxypiperidin-1-yl)carbonyl]phenyl}-1H-1,2,4-triazol-3-yl)methyl]-4-[(2S)-3,3,3-trifluoro-2-hydroxypropyl]-2,4-dihydro-3H-1,2,4-triazol-3-one] | 3500 | 14.5 | 241.4
2 | CN(CC(F)(F)F)C(=O)c1ccccc1-n1cnc(Cn2nc(-c3ccc(Cl)cc3)n(C[C@H](O)C(F)(F)F)c2=O)n1 [Example 272, 2-[3-({3-(4-Chlorophenyl)-5-oxo-4-[(2S)-3,3,3-trifluoro-2-hydroxypropyl]-4,5-dihydro-1H-1,2,4-triazol-1-yl}methyl)-1H-1,2,4-triazol-1-yl]-N-methyl-N-(2,2,2-trifluoroethyl)benzamide] | 1750 | 5.85 | 299.1
3 | CN1CC2CC1CN2C(=O)c1ccccc1-n1cnc(Cn2nc(-c3ccc(Cl)cc3)n(C[C@H](O)C(F)(F)F)c2=O)n1 (stereo partly drawn) [Example 273, 5-(4-Chlorophenyl)-2-[(1-{2-[(5-methyl-2,5-diazabicyclo[2.2.1]hept-2-yl)carbonyl]phenyl}-1H-1,2,4-triazol-3-yl)methyl]-4-[(2S)-3,3,3-trifluoro-2-hydroxypropyl]-2,4-dihydro-3H-1,2,4-triazol-3-one] | 6200 | 13 | 476.9
4 | CN(C(=O)c1ccccc1-n1cnc(Cn2nc(-c3ccc(Cl)cc3)n(C[C@H](O)C(F)(F)F)c2=O)n1)C1CCCC1 [Example 276, 2-[3-({3-(4-Chlorophenyl)-5-oxo-4-[(2S)-3,3,3-trifluoro-2-hydroxypropyl]-4,5-dihydro-1H-1,2,4-triazol-1-yl}methyl)-1H-1,2,4-triazol-1-yl]-N-cyclopentyl-N-methylbenzamide] | 1150 | 2.7 | 425.9
5 | CC1(C)CCN(C(=O)c2ccccc2-n2cnc(Cn3nc(-c4ccc(Cl)cc4)n(C[C@H](O)C(F)(F)F)c3=O)n2)CC1 [Example 277, 5-(4-Chlorophenyl)-2-[(1-{2-[(4,4-dimethylpiperidin-1-yl)carbonyl]phenyl}-1H-1,2,4-triazol-3-yl)methyl]-4-[(2S)-3,3,3-trifluoro-2-hydroxypropyl]-2,4-dihydro-3H-1,2,4-triazol-3-one] | 1800 | 5.3 | 339.6
6 | O=C(c1ccccc1-n1cnc(Cn2nc(-c3ccc(Cl)cc3)n(C[C@H](O)C(F)(F)F)c2=O)n1)N1CCCCO1 [Example 278, 5-(4-Chlorophenyl)-2-({1-[2-(1,2-oxazinan-2-ylcarbonyl)phenyl]-1H-1,2,4-triazol-3-yl}methyl)-4-[(2S)-3,3,3-trifluoro-2-hydroxypropyl]-2,4-dihydro-3H-1,2,4-triazol-3-one] | 405 | 1.6 | 253.1
7 | CC1(C)COCCN1C(=O)c1ccccc1-n1cnc(Cn2nc(-c3ccc(Cl)cc3)n(C[C@H](O)C(F)(F)F)c2=O)n1 [Example 281, 5-(4-Chlorophenyl)-2-[(1-{2-[(3,3-dimethylmorpholin-4-yl)carbonyl]phenyl}-1H-1,2,4-triazol-3-yl)methyl]-4-[(2S)-3,3,3-trifluoro-2-hydroxypropyl]-2,4-dihydro-3H-1,2,4-triazol-3-one] | 2800 | 1.12 | 2500.0
8 | O=C(c1ccccc1-n1cnc(Cn2nc(-c3ccc(Cl)cc3)n(C[C@H](O)C(F)(F)F)c2=O)n1)N1CCCOCC1 [Example 284, 5-(4-Chlorophenyl)-2-({1-[2-(1,4-oxazepan-4-ylcarbonyl)phenyl]-1H-1,2,4-triazol-3-yl}methyl)-4-[(2S)-3,3,3-trifluoro-2-hydroxypropyl]-2,4-dihydro-3H-1,2,4-triazol-3-one] | 970 | 2 | 485.0
9 | O=C(c1ccccc1-n1cnc(Cn2nc(-c3ccc(Cl)cc3)n(C[C@H](O)C(F)(F)F)c2=O)n1)N1CCCO1 [Example 285, 5-(4-Chlorophenyl)-2-({1-[2-(1,2-oxazolidin-2-ylcarbonyl)phenyl]-1H-1,2,4-triazol-3-yl}methyl)-4-[(2S)-3,3,3-trifluoro-2-hydroxypropyl]-2,4-dihydro-3H-1,2,4-triazol-3-one] | 440 | 1.9 | 231.6
10 | CC1(C)CN(C(=O)c2ccccc2-n2cnc(Cn3nc(-c4ccc(Cl)cc4)n(C[C@H](O)C(F)(F)F)c3=O)n2)CCO1 [Example 287, 5-(4-Chlorophenyl)-2-[(1-{2-[(2,2-dimethylmorpholin-4-yl)carbonyl]phenyl}-1H-1,2,4-triazol-3-yl)methyl]-4-[(2S)-3,3,3-trifluoro-2-hydroxypropyl]-2,4-dihydro-3H-1,2,4-triazol-3-one] | 2200 | 5.7 | 386.0
11 | CN(CC1CC1)C(=O)c1ccccc1-n1cnc(Cn2nc(-c3ccc(Cl)cc3)n(C[C@H](O)C(F)(F)F)c2=O)n1 [Example 289, 2-[3-({3-(4-Chlorophenyl)-5-oxo-4-[(2S)-3,3,3-trifluoro-2-hydroxypropyl]-4,5-dihydro-1H-1,2,4-triazol-1-yl}methyl)-1H-1,2,4-triazol-1-yl]-N-(cyclopropylmethyl)-N-methylbenzamide] | 445 | 0.83 | 536.1
12 | CC1C=CC(C)N1C(=O)c1ccccc1-n1cnc(Cn2nc(-c3ccc(Cl)cc3)n(C[C@H](O)C(F)(F)F)c2=O)n1 (stereo partly drawn) [Example 293, 5-(4-Chlorophenyl)-2-[(1-{2-[(2,5-dimethyl-2,5-dihydro-1H-pyrrol-1-yl)carbonyl]phenyl}-1H-1,2,4-triazol-3-yl)methyl]-4-[(2S)-3,3,3-trifluoro-2-hydroxypropyl]-2,4-dihydro-3H-1,2,4-triazol-3-one] | 840 | 4.7 | 178.7
13 | C=CCN(C)C(=O)c1ccccc1-n1cnc(Cn2nc(-c3ccc(Cl)cc3)n(C[C@H](O)C(F)(F)F)c2=O)n1 [Example 294, 2-[3-({3-(4-Chlorophenyl)-5-oxo-4-[(2S)-3,3,3-trifluoro-2-hydroxypropyl]-4,5-dihydro-1H-1,2,4-triazol-1-yl}methyl)-1H-1,2,4-triazol-1-yl]-N-methyl-N-(prop-2-en-1-yl)benzamide] | 1540 | 2.1 | 735.7

More lines, now with the values ahead:

Row | IC50 (human V2 receptor) [nM] | IC50 (human V1a receptor) [nM] | ratio IC50 hV2/hV1a (human V1a receptor) | SMILES
14 | 970 | 3.65 | 265.8 | O=C(c1ccccc1-n1cnc(Cn2nc(-c3ccc(Cl)cc3)n(C[C@H](O)C(F)(F)F)c2=O)n1)N1CCC(F)(F)C1 [Example 268, 5-(4-Chlorophenyl)-2-[(1-{2-[(3,3-difluoropyrrolidin-1-yl)carbonyl]phenyl}-1H-1,2,4-triazol-3-yl)methyl]-4-[(2S)-3,3,3-trifluoro-2-hydroxypropyl]-2,4-dihydro-3H-1,2,4-triazol-3-one]
15 | 2700 | 27.5 | 98.2 | O=C1CN(C(=O)c2ccccc2-n2cnc(Cn3nc(-c4ccc(Cl)cc4)n(C[C@H](O)C(F)(F)F)c3=O)n2)CN1 [Example 279, 5-(4-Chlorophenyl)-2-[(1-{2-[(4-oxoimidazolidin-1-yl)carbonyl]phenyl}-1H-1,2,4-triazol-3-yl)methyl]-4-[(2S)-3,3,3-trifluoro-2-hydroxypropyl]-2,4-dihydro-3H-1,2,4-triazol-3-one]
16 | 2500 | 14.5 | 172.4 | CN(C)C1CN(C(=O)c2ccccc2-n2cnc(Cn3nc(-c4ccc(Cl)cc4)n(C[C@H](O)C(F)(F)F)c3=O)n2)C1 [Example 286, 5-(4-Chlorophenyl)-2-{[1-(2-{[3-(dimethylamino)azetidin-1-yl]carbonyl}phenyl)-1H-1,2,4-triazol-3-yl]methyl}-4-[(2S)-3,3,3-trifluoro-2-hydroxypropyl]-2,4-dihydro-3H-1,2,4-triazol-3-one]
17 | 4250 | 46 | 92.4 | CN1CCN(C(=O)c2ccccc2-n2cnc(Cn3nc(-c4ccc(Cl)cc4)n(C[C@H](O)C(F)(F)F)c3=O)n2)CC1=O [Example 288, 4-{2-[3-({3-(4-Chlorophenyl)-5-oxo-4-[(2S)-3,3,3-trifluoro-2-hydroxypropyl]-4,5-dihydro-1H-1,2,4-triazol-1-yl}methyl)-1H-1,2,4-triazol-1-yl]benzoyl}-1-methylpiperazin-2-one]
18 | 845 | 9.1 | 92.9 | O=C(c1ccccc1-n1cnc(Cn2nc(-c3ccc(Cl)cc3)n(C[C@H](O)C(F)(F)F)c2=O)n1)N1CC(O)C1 [Example 290, 5-(4-Chlorophenyl)-2-[(1-{2-[(3-hydroxyazetidin-1-yl)carbonyl]phenyl}-1H-1,2,4-triazol-3-yl)methyl]-4-[(2S)-3,3,3-trifluoro-2-hydroxypropyl]-2,4-dihydro-3H-1,2,4-triazol-3-one]
19 | 1150 | 6.6 | 174.2 | O=C(c1ccccc1-n1cnc(Cn2nc(-c3ccc(Cl)cc3)n(C[C@H](O)C(F)(F)F)c2=O)n1)N1CC[C@@H](O)C1 [Example 291, 5-(4-Chlorophenyl)-2-{[1-(2-{[(3R)-3-hydroxypyrrolidin-1-yl]carbonyl}phenyl)-1H-1,2,4-triazol-3-yl]methyl}-4-[(2S)-3,3,3-trifluoro-2-hydroxypropyl]-2,4-dihydro-3H-1,2,4-triazol-3-one]
